Measured values published in patent US20250353819A1, “ARYL HYDANTOIN COMPOUNDS AND METHODS OF USE” (priority 2022, published 2025).
“And” between values parts separate entries of the source, which are not always exact repeats. Equal values may be shown once. Read-outs that look alike come from different tables or passages of the source.

Legend:
[1] = Stability in rat cryopreserved hepatocytes; type: in vitro ADME
[2] = target: CYP 2D6 (Homo sapiens (Human), UniProt P10635); assay: CYP inhibition in human liver microsomes, 2D6
CYP 2D6, sequence (P10635 whole entry): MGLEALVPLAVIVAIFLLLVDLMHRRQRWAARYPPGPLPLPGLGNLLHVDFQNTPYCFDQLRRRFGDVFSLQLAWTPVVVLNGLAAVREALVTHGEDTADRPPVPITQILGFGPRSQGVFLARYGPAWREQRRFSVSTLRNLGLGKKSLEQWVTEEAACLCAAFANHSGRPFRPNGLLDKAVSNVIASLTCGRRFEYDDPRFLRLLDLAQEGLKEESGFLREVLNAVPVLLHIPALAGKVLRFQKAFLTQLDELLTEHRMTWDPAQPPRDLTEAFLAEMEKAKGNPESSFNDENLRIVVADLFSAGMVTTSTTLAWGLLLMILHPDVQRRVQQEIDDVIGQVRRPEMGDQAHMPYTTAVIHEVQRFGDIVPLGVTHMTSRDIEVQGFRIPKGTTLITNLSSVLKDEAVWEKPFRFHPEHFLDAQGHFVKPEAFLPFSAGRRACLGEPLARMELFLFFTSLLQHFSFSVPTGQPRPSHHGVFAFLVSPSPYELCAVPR

[3] = target: CYP 3A4 (Homo sapiens (Human), UniProt P08684); assay: CYP inhibition in human liver microsomes, 3A4
CYP 3A4, sequence (P08684 whole entry): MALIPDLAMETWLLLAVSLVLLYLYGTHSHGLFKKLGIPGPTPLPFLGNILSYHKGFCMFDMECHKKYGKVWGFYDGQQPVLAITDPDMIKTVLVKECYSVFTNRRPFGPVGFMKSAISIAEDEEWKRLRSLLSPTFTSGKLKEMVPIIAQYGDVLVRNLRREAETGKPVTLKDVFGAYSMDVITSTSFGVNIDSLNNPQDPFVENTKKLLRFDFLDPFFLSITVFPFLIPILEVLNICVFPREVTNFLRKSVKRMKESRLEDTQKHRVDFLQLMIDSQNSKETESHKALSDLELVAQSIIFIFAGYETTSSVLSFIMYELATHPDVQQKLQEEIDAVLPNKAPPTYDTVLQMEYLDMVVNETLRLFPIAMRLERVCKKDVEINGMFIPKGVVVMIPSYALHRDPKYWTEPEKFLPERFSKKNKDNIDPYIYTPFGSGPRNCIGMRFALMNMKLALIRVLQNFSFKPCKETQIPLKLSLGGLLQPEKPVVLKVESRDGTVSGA

[4] = tested on: S. mansoni; assay: Antischistosomal screen in S. mansoni-infected mice; type: in vivo, Schistosoma mansoni; conditions: Schistosoma mansoni, single oral dose, mouse model
Description: Antischistosomal Screen. […] As described by Lombardo et al. (2019), cercariae of S. mansoni were obtained from infected Biomphalaria glabrata. By way of example, NMRI mice were infected subcutaneously with approximately 100 S. mansoni cercariae. […] Untreated mice (n=8) served as controls. At 21 d post-treatment, animals were killed by the CO2 method and dissected. Worms were removed by picking, then sexed and counted.

[5] = Whole blood to plasma partitioning, human; type: in vitro ADME
[6] = in vivo; parameters: species or system dog; conditions: for clearance: read-out: Plasma CL; for AUC(0-t): read-out: mean AUClast; for C0: read-out: mean plasma concentration extrapolated to time zero (C0); for MTD: Beagle dogs, read-out: maximum tolerated dose (MTD); for NOAEL: male and female Beagle dogs, read-out: no observed adverse effect level (NOAEL)
Method: The same 2M/2F dogs were used following 2-week washout periods for each dose level in escalation order. This was a survival study and animals were not sacrificed. The following parameters were evaluated: mortality/morbidity, clinical observations, body weights, plasma drug levels, pharmacokinetics and clinical pathology (hematology, coagulation and serum chemistry).

[7] = Mouse exposure / pharmacokinetic studies; type: in vivo, mice; conditions: male, Swiss outbred, mouse, in vivo; for half-life / clearance: iv, 1 mg/kg
[8] = beagle, dog, in vivo, female dogs, iv 1 mg/kg
[9] = beagle, dog, in vivo, male dogs, iv 1 mg/kg
[10] = both sexes, dog, in vivo, single po administration

SMILES: [2H]C([2H])([2H])C1(C([2H])([2H])[2H])NC(=O)N(c2ccc(F)c(C(C)(F)F)c2)C1=O [Compound IE, 3-(3-(1,1-difluoroethyl)-4-fluorophenyl)-5,5-bis(methyl-d3)imidazolidine-2,4-dione]
- CLint ([1]; Rat cryopreserved hepatocytes): <2 μL/min/10^6
- hepatocyte CLint ([1]; rat cryopreserved hepatocytes, read-out: in vitro CLint): < 2000 µL/min/1e6 cells
- CYP inhibition ([2]; CYP 2D6, concentrations up to 20 μM, human liver microsomes): did not inhibit
- IC50 ([2]; read-out: CYP inhibition IC50, 2D6): > 20 µM
- CYP inhibition ([3]; CYP 3A4, concentrations up to 20 μM, human liver microsomes): did not inhibit
- IC50 ([3]; read-out: CYP inhibition IC50, 3A4* (tes/mid)): > 20 µM
- ED50 ([4]; adult stage, read-out: S. mansoni ED50, adult): 7.1 mg/kg
- ED50 ([4]; juvenile stage, read-out: S. mansoni ED50, juvenile): 16 mg/kg
- B:P [5]: 0.78±0.035 and 0.78
- AUC ([6]; beagle, dog, in vivo, female dogs (n = 2), IV 1 mg/kg, read-out: Plasma AUCIV 0-last): 405 µg·h/mL
- clearance ([6]; beagle, dog, in vivo, female dogs (n = 2), IV 1 mg/kg): 0.032 mL/min/kg
- AUC ([6]; beagle, dog, in vivo, female dogs (n = 2), PO 15 mg/kg, read-out: Plasma AUCoral 0-last): 7030 µg·h/mL
- Cmax ([6]; beagle, dog, in vivo, female dogs (n = 2), PO 15 mg/kg, read-out: Plasma Cmax): 42700 ng/mL
- AUC(0-t) [6, 8]: 377 µg·h/mL
- Cmax ([6]; beagle, dog, in vivo, female dogs, iv 1 mg/kg, read-out: mean peak plasma concentration (Cmax)): 12500 ng/mL
- C0 [6, 8]: 18800 ng/mL
- AUC ([6]; beagle, dog, in vivo, male dogs (n = 2), IV 1 mg/kg, read-out: Plasma AUCIV 0-last): 526 µg·h/mL
- clearance ([6]; beagle, dog, in vivo, male dogs (n = 2), IV 1 mg/kg): 0.024 mL/min/kg
- AUC ([6]; beagle, dog, in vivo, male dogs (n = 2), PO 15 mg/kg, read-out: Plasma AUCoral 0-last): 8800 µg·h/mL
- Cmax ([6]; beagle, dog, in vivo, male dogs (n = 2), PO 15 mg/kg, read-out: Plasma Cmax): 51900 ng/mL
- AUC(0-t) [6, 9]: 485 µg·h/mL
- Cmax ([6]; beagle, dog, in vivo, male dogs, iv 1 mg/kg, read-out: mean peak plasma concentration (Cmax)): 6880 ng/mL
- C0 [6, 9]: 9460 ng/mL
- Tmax ([6]; both sexes, beagle, dog, in vivo, dogs, po dose groups 15, 75, 150 mg/kg, read-out: time of peak plasma concentrations (Tmax)): 0.25 to 24 h
- MTD ([6]; both sexes, dog, in vivo, 1 mg/kg, single iv administration): > 1 mg/kg
- MTD [6, 10]: > 150 mg/kg
- NOAEL ([6]; both sexes, dog, in vivo, single iv administration): ≥ 1 mg/kg
- NOAEL [6, 10]: ≥ 150 mg/kg
- Bioavailability, determined using AUClast ([6]; both, beagle, dog, in vivo, po): greater than 100%
- increase in AUClast, 150 mg/kg compared to mid-dose ([6]; both, beagle, dog, in vivo, po, 150 mg/kg): 2-3 fold
- PlasmaVSS ([6]; female, beagle, dog, in vivo, iv, 1 mg/kg): 0.45 L/kg
- half-life ([6]; female, beagle, dog, in vivo, iv, 1 mg/kg, female dogs (n = 2), IV 1 mg/kg, read-out: Apparent t1/2 (converted)): 123 h
- half-life ([6]; female, beagle, dog, in vivo, iv, 1 mg/kg, female dogs, iv 1 mg/kg, read-out: mean elimination phase half-life (t1/2) (converted)): 152 h
- BA based on AUC0-last ([6]; female, beagle, dog, in vivo, po, 15 mg/kg): 115%
- half-life ([6]; female, beagle, dog, in vivo, po, 150 mg/kg, female dogs, po 150 mg/kg, read-out: mean t1/2 (converted)): 402 h
- Apparent t1/2 ([6]; male dogs (n = 2), PO 15 mg/kg): 237 h
- PlasmaVSS ([6]; male, beagle, dog, in vivo, iv, 1 mg/kg): 0.36 L/kg
- half-life ([6]; male, beagle, dog, in vivo, iv, 1 mg/kg, male dogs (n = 2), IV 1 mg/kg, read-out: Apparent t1/2 (converted)): 155 h
- half-life ([6]; male, beagle, dog, in vivo, iv, 1 mg/kg, male dogs, iv 1 mg/kg, read-out: mean elimination phase half-life (t1/2) (converted)): 167 h
- BA based on AUC0-last ([6]; male, beagle, dog, in vivo, po, 15 mg/kg): 111%
- half-life ([6]; male, beagle, dog, in vivo, po, 15 mg/kg, male dogs (n = 2), PO 15 mg/kg, read-out: Apparent t1/2 (converted)): 237 h
- half-life ([6]; male, beagle, dog, in vivo, po, 75 mg/kg, male dogs, po 75 mg/kg, read-out: mean t1/2 (converted)): 341 h
- half-life ([7]; IV 1 mg/kg, mice, read-out: apparent half-life (converted)): 30 h
- clearance ([7]; IV 1 mg/kg, mice, read-out: blood clearance): 0.59 mL/min/kg
- half-life ([7]; mice, IV, mean dose 1.0 mg/kg, read-out: Apparent t1/2 (converted)): 38 h
- clearance ([7]; mice, IV, mean dose 1.0 mg/kg, read-out: Plasma CL): 0.491 mL/min/kg
- bioavailability ([7]; po, mice, all doses 6.25 to 100 mg/kg, read-out: apparent oral bioavailability): ≥ 80%
- AUC(0-t) ([7]; 100 mg/kg PO in mice, read-out: AUC0-last): 1800 µg·h/mL
